Results as given in patent US20230324382A1, “ANTIPHOSPHOLIPID ANTIBODIES FOR THE DIAGNOSIS OF LYME DISEASE” (Trustees of Tufts College, priority 2022, published 2023).

What was measured:
S. aureus = test: Incorporation of NBD-PC, other species; assay type: cell-based, Staphylococcus aureus 502a; conditions: 25 μM NBD-PC, 4 hours
Method: (§1) Cells were grown to a stationary phase (5 days) in BSK and then pelleted (5 minutes at 3220 g), washed once in an equal volume of PBS, and resuspended in an equal volume of dBSK. The cell suspension (1 mL) was added to nitrobenzoxadiazole-labeled (NBD-labeled) phospholipids (Avanti) to 25 μM. At hourly intervals, the cells were pelleted (5 minutes at 18,800 g), washed 3 times in 1 mL PBS, and resuspended in 100 μL PBS. The suspensions were transferred onto clear-bottomed, opaque 96-well plates (Corning), and fluorescence was recorded at excitation 460 nm/emission 540 nm (Ex460/Em540). Staphylococcus aureus 502a and Escherichia coli MG1655 were grown overnight in tryptic soy broth (TSB): tryptone (17.0 g/L), soytone (3.0), glucose (2.5), sodium chloride (5.0), and dipotassium phosphate (2.5). Incorporation of NBD-phospholipids was carried out in TSB, with subsequent washing and measurement as above.
(§2) After fluorescence measurements, 5 μL cell suspensions were spotted onto glass slides and fixed with 5 μL ProLong Gold (Thermo Fisher Scientific) with DAPI. […] For all 3 bacterial species imaged, the laser power was calibrated such that minimal autofluorescence was detected in unlabeled cells prior to imaging of the labeled cells.

B. burgdorferi = test: Retention of NBD-PC in the membrane after transfer to rich medium; assay type: cell-based, Borrelia burgdorferi
Text: FIG. 12 is a graph illustrating that phospholipids are retained in the membrane in the absence of an environmental source. B. burgdorferi was labelled with NBD-PC in lipid-depleted dBSK medium for four hours, washed, and resuspended in rich medium. […] Points are the mean of three biological replicates, with error bars the standard deviation.
This is indicative of nonspecific uptake and is consistent with a model of random diffusion into the membrane. Fluorescence was detectable for up to 4 days after the initial labeling, with a half-life of approximately 1 day (FIG. 12).

E. coli = test: Incorporation of NBD-PC, other species; assay type: cell-based, Escherichia coli MG1655; conditions: 25 μM NBD-PC, 4 hours
Method: as §1, §2

NBD-PC
entry of fluorescent phospholipid into membranes (S. aureus): did not enter the membranes | fluorescence intensity as % of D0 (B. burgdorferi; day 1): 56% | fluorescence intensity as % of D0 (B. burgdorferi; day 4): ~7% | entry of fluorescent phospholipid into membranes (E. coli): did not enter the membranes
